pIC50: −log10 of the molar value. Counter-ions that a name gives are not always drawn. Like-named read-outs stand apart in the source and are kept apart here.
What was measured:
[1] = tested on: MHEC-5T hemangioendothelioma tumor; format: in vivo; details: 100 mg/kg single i.p. dose, 24 hours post-treatment, SCID mice with MHEC5-T tumor
Procedure: The vascular effects of the following compounds were assessed in tumor-bearing mice using a fluorescent-bead assay. A MHEC-5T hemangioendothelioma tumor model was established by subcutaneous injection of 0.5×10^6 cultured MHEC5-T cells into the right flank of Fox Chase CB-17 SCID mice and allowed to grow to a size of 300 mm^3 before i.p. injection with a single dose of saline control or compound. At 24 hours post-treatment, mice were i.v. injected with 0.25 ml of diluted FluoSphere beads (1:6 in physiological saline) in the tail vein, and sacrificed after 3 minutes. Tumor cryosections at a thickness of 8 um were directly examined using quantitative fluorescent microscopy. For quantification, image analysis of 3 sections from three tumor treated in each group were examined and vascular shutdown was expressed a vessel area per tissue area (mm^2) in percentage of the control.

tubulin = experiment: Inhibition of tubulin polymerization; format: biochemical
human cancer cell lines = experiment: MTT cytotoxicity of combretastatins and prodrugs (Table 1); format: cell-based
[2] = format: cell-based
Procedure: Exponentially growing were treated with the following compounds for 1 hour and 5 days. Insoluble compounds were formulated in a small amount (0.3%) of DMSO for biological evaluation. Cell viability was determined by the calorimetric MTT assay using 3(4,5-dimethylthiazol-2-yl)-2,5-diphenyl-2H-tetrazolium bromide according to well-established procedures (see Berridge, et al. (1996) for a general protocol of this type of assay).

[3] = 1 h, read-out: MTT Cytotoxicity (IC50) at 1 hour
[4] = 5 h, read-out: MTT Cytotoxicity (IC50) at 5 hours
[5] = treated for 1 hour, read-out: IC50 @ 1 h
[6] = treated for 5 days, read-out: IC50 @ 5 days

## COc1ccc(/C=C\c2cc(OC)c(OC)c(OC)c2)c(N)c1 [ZSB-39B, 2′-Amino-3,4,4′,5-tetramethoxy-(Z)-stilbene]
[1]
  % Blood Flow Shutdown (100 mg/kg): 50%

## COc1ccc(/C=C\c2cc(OC)c(OC)c(OC)c2)c(O)c1O [CA-1, combretastatin A-1]
tubulin
  pIC50: 5.40 to 5.70
  activity with tubulin: active with tubulin
Human cancer cell lines; [3]
  pIC50: 5.00
Human cancer cell lines; [4]
  pIC50: 7.30

## COc1cc(/C=C\c2ccc(OC)c(OP(=O)([O-])[O-])c2OC)cc(OC)c1OC.[Na+].[Na+] [ZSB-27B, 3′-Disodium Phosphate-3,3′,4,4′,5-pentamethoxy-(Z)-stilbene]
[1]
  % Blood Flow Shutdown (100 mg/kg): 41%

## COc1cc(/C=C\c2ccc(OC)c(OP(=O)(O)O)c2OP(=O)(O)O)cc(OC)c1OC [CA-1P]
tubulin
  pIC50: < 4.40
  activity with tubulin: not active with tubulin
Human cancer cell lines; [3]
  pIC50: 5.49
Human cancer cell lines; [4]
  pIC50: 8.34

## COc1ccc(/C=C\c2cc(OC)c(OC)c(OC)c2)c(O)c1Br [ZSB-26A, 2′ Hydroxy-3′-bromo-3,4,4′,5-tetramethoxy-(Z)-stilbene]
[2]; [5]
  pIC50: 5.51
[2]; [6]
  pIC50: 7.80

## COc1cc(/C=C\c2cc(OC)c(OC)c(OC)c2)c(I)cc1OP(=O)([O-])[O-].[Na+].[Na+] [ZSB-29B, 4′-Disodium Phosphate-2′-Iodo-3,4,5,5′-tetramethoxy-(Z)-stilbene]
[1]
  % Blood Flow Shutdown (100 mg/kg): 43%

## 3′,5′-Tetrasodium Phosphate-3,4,4′,5-tetramethoxy-(Z)-stilbene [ZSB-2B]
[2]; [5]
  pIC50: 4.60
[2]; [6]
  pIC50: 6.00
[1]
  % Blood Flow Shutdown (100 mg/kg): 65%

## COc1ccc(/C=C\c2cc(OC)c(OC)c(OC)c2)cc1OP(=O)(O)OC [Oxi-com209, CA-4P Methyl Ester, Ammonium Salt]
[2]; [5]
  pIC50: 4.42
[2]; [6]
  pIC50: 7.15

## COc1ccc(/C=C\c2cc(OC)c(OC)c(OC)c2)c(N)c1N [ZSB-3B, 2′,3′-Damino-3,4,4′,5-tetramethoxy-(Z)-stilbene]
[2]; [5]
  pIC50: 5.62
[2]; [6]
  pIC50: 8.37

## COc1ccc(/C=C\c2cc(OC)c(OC)c(OC)c2)c(O)c1 [ZSB-46A, 2′-Hydroxy-3,4,4′,5-tetramethoxy-(Z)-stilbene]
[2]; [5]
  pIC50: 4.37
[2]; [6]
  pIC50: 7.17

## COc1cc(OP(=O)([O-])[O-])c(/C=C\c2cc(OC)c(OC)c(OC)c2)cc1OP(=O)([O-])[O-].[Na+].[Na+].[Na+].[Na+] [ZSB-33B, 2′,5′-Tetrasodium Diphosphate-3,4,4′,5-tetramethoxy-(Z)-stilbene]
[1]
  % Blood Flow Shutdown (100 mg/kg): 51%

## COc1ccc(/C=C\c2cc(OC)c(OC)c(OC)c2)c(Br)c1O [ZSB-16, 2′-Bromo-3′-Hydroxy-3,4,4′,5-tetramethoxy-(Z)-stilbene]
[2]; [5]
  pIC50: 5.70
[2]; [6]
  pIC50: 8.17

## CA4P n-Octyl Ester, Ammonium Salt [Oxi-com210]
[1]
  % Blood Flow Shutdown (100 mg/kg): 89%

## COc1ccc(/C=C\c2cc(OC)c(OC)c(OC)c2)c(NC(=O)C(N)CO)c1 (centres unmarked) [ZSB-45, 2′serinamide-3,4,4′,5-tetramethoxy-(Z)-stilbene]
[2]; [5]
  pIC50: 5.00
[2]; [6]
  pIC50: 7.30
[1]
  % Blood Flow Shutdown (100 mg/kg): 43%

## COc1ccc(/C=C\c2cc(OC)c(OC)c(OC)c2)cc1OP(=O)(O)O [CA-4P]
tubulin
  pIC50: < 4.40
Human cancer cell lines; [3]
  pIC50: 6.10
Human cancer cell lines; [4]
  pIC50: 8.70

## COc1ccc(/C=C\c2cc(OC)c(OC)c(OC)c2)c(F)c1O [ZSB-41A, 2′-Fluoro-3′-Hydroxy-3,4,4′,5-tetramethoxy-(Z)-stilbene]
[2]; [5]
  pIC50: 5.10
[2]; [6]
  pIC50: 7.82

## COc1cc(/C=C\c2cc(O)c(OC)c([N+](=O)[O-])c2)cc(OC)c1OC [ZSB-43, 3′-Hydroxy, 5′-Nitro-3,4,4′,5-tetramethoxy-(Z)-stilbene]
[2]; [5]
  pIC50: 5.10
[2]; [6]
  pIC50: 5.89

## COc1ccc(/C=C\c2cc(OC)c(OC)c(OC)c2)cc1OP(=O)(O)OC1CCCCC1 [Oxi-com191, CA4P Cyclohexane Ester, Ammonium Salt]
[2]; [5]
  pIC50: 4.46
[2]; [6]
  pIC50: 6.89

## COc1ccc(/C=C\c2cc(OC)c(OC)c(OC)c2)cc1O [CA-4, Combretastatin A-4]
tubulin
  pIC50: […]
Human cancer cell lines; [3]
  pIC50: 7.00
Human cancer cell lines; [4]
  pIC50: 7.30

— USRE45907E1, “Functionalized stilbene derivatives as improved vascular targeting agents” (OXiGENE, Inc., priority 2001, dated 2016)
